Earlier results in Sander's compilation of Henry's law constants (doi:10.1063/1.1564818).

Assay: Henry solubility constant Hcp at 298.15 K (mol/(m3 Pa))
Settings: reference: Fernández-Prini et al. (2003); cited value

Point of comparison: `[He]` [helium], “Henry solubility constant Hcp” value 3.9e-06. Against it:
- [Kr] [krypton] — higher, 2.5e-05
- [C-]#[O+] [carbon monoxide] — higher, 9.7e-06
- [Ne] [neon] — higher, 4.5e-06
- FS(F)(F)(F)(F)F [sulfur hexafluoride] — lower, 2.5e-06
- [HH] [hydrogen] — higher, 7.8e-06
- [Xe] [xenon] — higher, 4.4e-05
- O=O [oxygen] — higher, 1.3e-05
- [Ar] [argon] — higher, 1.4e-05
- O=C=O [carbon dioxide] — higher, 0.00033
